# Measured values taken from patent US20240307220A1, “Combination Therapy to Treat Temperature Sensitive Mutant Tumors” (H. LEE MOFFITT CANCER CENTER AND RESEARCH INSTITUTE INC., priority 2021, published 2024).
# Legend:
# [1] = tested on: H1299 stably expressing ts p53 mutants; assay: Apoptosis (PARP cleavage) and MTS cell viability in H1299 stably expressing ts p53 mutants treated with CPT; format: cell-based, human
# Method: FIGS. 3A to 3D show induction of growth arrest and cell death by p53 ts mutants. […] DNA replication rate was measured by scintillation counting and normalized to cell number. […] PARP cleavage was determined by Western blot. FIGS. 3C and 3D show H1299 stably expressing ts p53 mutants treated with CPT at indicated concentrations for 48 hrs at 37° C. or 32° C. Cell viability was determined by MTS assay. The results are average of 3 experiments (mean±SD).
# Western blot. Cells were lysed in lysis buffer (50 mM Tris-HCl pH 8.0, 5 mM EDTA, 150 mM NaCl, 0.5% Nonidet P-40, 1×protease inhibitor cocktail) and centrifuged for 10 minutes at 14,000×g, and the insoluble debris was discarded. Cell lysate (10-50 µg of protein) was fractionated by SDS-PAGE and transferred to Immobilion P filters (Millipore). […] MDM2 was detected using monoclonal antibody 3G9 produced in house. Other markers were detected using commercial antibodies: Actin (Sigma A5441), p53-DO1 (BD Pharmingen #554293), p21 (BD Pharmingen #556430), PUMA (CellSignaling #12450), PARP (BD Pharmingen #556362), p53 pSer15 (CellSignaling #9284), p53 acetyl-Lys382 (CellSignaling #2525).
# Cell proliferation and viability assays. DNA replication was analyzed using ^3H-thymidine incorporation assay. […] The incorporated ^3H-thymidine was analyzed by liquid scintillation counting. […]
# [2] = tested on: H1299 cells stably expressing p53 ts mutants; assay: Western blot of p53 target gene induction in H1299 stably expressing ts p53 mutants, with CPT; format: cell-based, human
# Method: FIGS. 1B and 1C show representative p53 ts mutants stably expressed in H1299 cells tested for induction of target gene expression after 20 hrs at 32° C. CPT (0.5 μM for 20 hrs) was added when cells were shifted to 32° C. […] P53 binding to PUMA promoter was determined by ChIP. The results are average of 3 experiments (mean±SD).
# FIGS. 10A to 10F show induction of endogenous targets by ts p53 mutants. P53 ts mutants were stably expressed in H1299 cells using lentivirus vector. Cells were tested for induction of target gene expression after 20 hrs at 32° C. by Western blot. CPT (0.5 μM for 20 hrs) was added when cells were shifted to 32° C. A138V was used as a benchmark to facilitate comparison between gels.
# Western blot. Cells were lysed in lysis buffer (50 mM Tris-HCl pH 8.0, 5 mM EDTA, 150 mM NaCl, 0.5% Nonidet P-40, 1×protease inhibitor cocktail) and centrifuged for 10 minutes at 14,000×g, and the insoluble debris was discarded. Cell lysate (10-50 µg of protein) was fractionated by SDS-PAGE and transferred to Immobilion P filters (Millipore). The filter was blocked for 1 hr with phosphate buffered saline (PBS) containing 5% non-fat dry milk and 0.1% Tween 20, incubated with primary and secondary antibodies, and the filter was developed using SuperSignal reagent (Thermo Scientific). MDM2 was detected using monoclonal antibody 3G9 produced in house. Other markers were detected using commercial antibodies: Actin (Sigma A5441), p53-DO1 (BD Pharmingen #554293), p21 (BD Pharmingen #556430), PUMA (CellSignaling #12450), PARP (BD Pharmingen #556362), p53 pSer15 (CellSignaling #9284), p53 acetyl-Lys382 (CellSignaling #2525).
# Validation of ts p53 mutants from cancer. We selected 17 most frequently observed ts mutants for validation in p53-null H1299 cells. These ts mutants together represent 9.6% (2,358/24,679) of tumors with p53 missense mutations (Table 3), or 64% (2,358/3,658) of tumors with ts p53 mutations. The ability of these mutants to activate the p21 and PUMA promoters at 32° C. were confirmed in reporter assays after transient expression (FIG. 2A, FIG. 8A-8C). […]
compound,measurement,setting,value
"CC[C@@]1(O)C(=O)OCc2c1cc1n(c2=O)Cc2cc3ccccc3nc2-1 [CPT, Camptothecin]",apoptosis indicated by PARP cleavage,"[1]; 0.5 μM CPT for 48 hrs at 32° C., 1% FBS",cooperated with CPT to induce apoptosis
same,cell viability (MTS assay),[1]; CPT for 48 hrs at 32° C.,loss of cell viability
same,ts p53 Ser15 phosphorylation and K382 acetylation,"[2]; CPT 0.5 μM for 20 hrs at 32° C., Western blot",stimulated
same,PUMA expression in the absence of p53,"[2]; H1299 without p53, CPT 0.5 μM for 20 hrs",modestly stimulated PUMA expression
same,induction of endogenous PUMA,"[2]; stably transfected H1299 with ts mutants, CPT 0.5 μM for 20 hrs at 32° C., Western blot",could be stimulated
